# According to patent publication US9956293B2, “Targeted therapeutics” (Madrigal Pharmaceuticals, Inc., priority 2014, dated 2018):
# Tested on: HER2
# Test: HER2 degradation assay with BT-474 cell line (Example 12, FACS)
# Type: cell-based
# Conditions: Homo sapiens, BT-474; SDC-TRAPs of the 41st table
# Excerpt: HER2 Degradation Assay with BT-474 Cell Line
# HER2 has emerged as a key target for anticancer drugs due to its intrinsic involvement in the phosphatidylinositol-3-kinase-Akt/protein kinase B (PI3K-Akt) and the mitogen-activated protein kinase (MAPK) pathways, both of which suppress apoptosis and promote tumor cell survival, gene transcription, angiogenesis, cellular proliferation, migration, mitosis, and differentiation. The degradation of HER2 is a measure of efficacy of anticancer therapeutics that target Hsp90. Accordingly, the SDC-TRAP molecules of the invention that comprise a binding moiety that binds Hsp90 were tested in the following HER2 degradation assay.
# BT-474 cells (human breast cancer cell line ATCC HTB-20) were obtained from ATCC and seeded into 12-well tissue culture plates at 0.2×10^6/1.8 mL/well. […] Each test compound was titrated in 4-fold dilutions from 5 μM to 78 nM with DMSO and 200 μL of the titration was added to each well of the cell plate. The DMSO final concentration was 0.2%. Cells were incubated overnight at 37° C. in 5% CO2.
# Media was decanted from the plate, cells were washed 1× in PBS. 400 μL trypsin (EDTA) per well was added, and the cells were incubated for 2 to 3 minutes. Cells were collected into FACS tubes containing 1 ml culture medium to neutralize the trypsin and were centrifuged for 5 minutes at 1200 rpm. Supernatant was decanted and the cells were resuspended in 5 μL FITC (anti HER2/nu)/200 μL staining buffer (1×PBS+1% FBS+0.05% Sodium Azide)/tube. Controls were […] IgG isotype control and staining buffer only. Tubes were incubated for 30 minutes in the dark at room temperature. 1 mL staining buffer was added to each tube and the tubes were centrifuged for 6 minutes at 1200 rpm. The supernatant was decanted and 300 μL staining buffer was added to each tube, which was store at 4° C. for FACS (cytometer) analysis. The cytometer readout was normalized and the potency of each compound is evaluated with IC50 calculated with XLfit™ software.
row,Compound,IC50 [nM]
1,"CC(C)c1cc(-c2nnc(O)n2-c2ccc(CN3CCN(C(=O)c4ccc(CCc5c[nH]c6nc(N)[nH]c(=O)c56)cc4)CC3)c(F)c2)c(O)cc1O [SDC-TRAP-0078, 2-amino-5-(4-(4-(4-(3-(2,4-dihydroxy-5-isopropylphenyl)-5-hydroxy-4H-1,2,4-triazol-4-yl)-2-fluorobenzyl)piperazine-1-carbonyl)phenethyl)-3H-pyrrolo[2,3-d]pyrimidin-4(7H)-one]",1000

# Same assay, conditions: Homo sapiens, BT-474; SDC-TRAPs of the 43rd table
row,Compound,IC50 [nM]
1,"CCc1c2c(nc3ccc(O)cc13)-c1cc3c(c(=O)n1C2)COC(=O)C3(CC)OC(=O)N(C)CCCCN1CCN(Cc2ccc(-n3c(O)nnc3-c3cc(C(C)C)c(O)cc3O)cc2)CC1 (stereo not drawn) [SDC-TRAP-0055, 4,11-diethyl-9-hydroxy-3,14-dioxo-3,4,12,14-tetrahydro-1H-pyrano[3′,4′:6,7]indolizino[1,2-b]quinolin-4-yl (4-(4-(4-(3-(2,4-dihydroxy-5-isopropylphenyl)-5-hydroxy-4H-1,2,4-triazol-4-yl)benzyl)piperazin-1-yl)butyl)(methyl)carbamate]",402

# Same assay, conditions: Homo sapiens, BT-474; SDC-TRAPs of the 52nd table
row,Compound,IC50 [nM]
1,"CCNC(=O)c1nnc(-c2cc(C(C)C)c(O)cc2O)n1-c1ccc(Oc2ccc(C(=O)NC(Cc3ccccc3)C(=O)Nc3cc(-c4cnoc4-c4cc(OC)c(OC)c(OC)c4)ccc3OC)cc2)cc1 (stereo not drawn) [SDC-TRAP-0158, 5-(2,4-dihydroxy-5-isopropylphenyl)-N-ethyl-4-(4-(4-((1-((2-methoxy-5-(5-(3,4,5-trimethoxyphenyl)isoxazol-4-yl)phenyl)amino)-1-oxo-3-phenylpropan-2-yl)carbamoyl)phenoxy)phenyl)-4H-1,2,4-triazole-3-carboxamide]",> 5000

# Same assay, conditions: Homo sapiens; BT-474 cells
row,Compound,IC50 [nM]
1,"CC(C)c1cc(-c2nnc(O)n2-c2ccc(N3CCN(C(=O)c4ccc(COC(=O)Nc5cccc6c5CN(C5CCC(=O)NC5=O)C6=O)cc4)CC3)nc2)c(O)cc1O (stereo not drawn) [SDC-TRAP-0175, 4-(4-(5-(3-(2,4-dihydroxy-5-isopropylphenyl)-5-hydroxy-4H-1,2,4-triazol-4-yl)pyridin-2-yl)piperazine-1-carbonyl)benzyl (2-(2,6-dioxopiperidin-3-yl)-1-oxoisoindolin-4-yl)carbamate]",2630
2,"CC(C)c1cc(-c2nnc(O)n2-c2ccc(CC3CCN(C(=O)Nc4cccc5c4CN(C4CCC(=O)NC4=O)C5=O)CC3)cc2)c(O)cc1O (stereo not drawn) [SDC-TRAP-0114, 4-(4-(3-(2,4-dihydroxy-5-isopropylphenyl)-5-hydroxy-4H-1,2,4-triazol-4-yl)benzyl)-N-(2-(2,6-dioxopiperidin-3-yl)-1-oxoisoindolin-4-yl)piperidine-1-carboxamide]",4310
3,"CC(C)c1cc(-c2nnc(O)n2-c2ccc(CC(=O)N(C)CCOC(=O)Nc3cccc4c3CN(C3CCC(=O)NC3=O)C4=O)cc2)c(O)cc1O (stereo not drawn) [SDC-TRAP-0127, 2-(2-(4-(3-(2,4-di hydroxy-5-isopropylphenyl)-5-hydroxy-4H-1,2,4-triazol-4-yl)phenyl)-N-methylacetamido)ethyl(2-(2,6-dioxopiperidin-3-yl)-1-oxoisoindolin-4-yl)carbamate]",8090
4,"CC(C)c1cc(-c2nnc(O)n2-c2ccc(CC3CCN(C(=O)COC(=O)Nc4cccc5c4CN(C4CCC(=O)NC4=O)C5=O)CC3)cc2)c(O)cc1O (stereo not drawn) [SDC-TRAP-0131, 2-(4-(4-(3-(2,4-dihydroxy-5-isopropylphenyl)-5-hydroxy-4H-1,2,4-triazol-4-yl)benzyl)piperidin-1-yl)-2-oxoethyl(2-(2,6-dioxopiperidin-3-yl)-1-oxoisoindolin-4-yl)carbamate]",> 5000
5,"CC(C)c1cc(-c2nnc(O)n2-c2ccc3c(ccn3CCOCCNC(=O)CCn3cc(F)c(=O)[nH]c3=O)c2)c(O)cc1O [SDC-TRAP-0048, N-(2-(2-(5-(3-(2,4-dihydroxy-5-isopropylphenyl)-5-hydroxy-4H-1,2,4-triazol-4-yl)-1H-indol-1-yl)ethoxy)ethyl)-3-(5-fluoro-2,4-dioxo-3,4-dihydropyrimidin-1(2H)-yl)propanamide]",> 5000
6,"CC(C)c1cc(-c2nnc(O)n2-c2ccc(CC3CCN(C(=O)O[C@H]4CC[C@@]5(C)C(=CC[C@@H]6[C@@H]5CC[C@]5(C)C(c7cccnc7)=CC[C@@H]65)C4)CC3)cc2)c(O)cc1O [SDC-TRAP-0153, (3S,8R,9S,10R,13S,14S)-10,13-dimethyl-17-(pyridin-3-yl)-2,3,4,7,8,9,10,11,12,13,14,15-dodecahydro-1H-cyclopenta[a]phenanthren-3-yl 4-(4-(3-(2,4-dihydroxy-5-isopropylphenyl)-5-hydroxy-4H-1,2,4-triazol-4-yl)benzyl) piperidine-1-carboxylate]",6340
7,"CC(C)c1cc(-c2nnc(O)n2-c2ccc(CN3CCN(C(=O)COC(=O)Nc4cccc5c4CN(C4CCC(=O)NC4=O)C5=O)CC3)cc2)c(O)cc1O (stereo not drawn) [SDC-TRAP-0121, 2-(4-(4-(3-(2,4-dihydroxy-5-isopropylphenyl)-5-hydroxy-4H-1,2,4-triazol-4-yl)benzyl)piperazin-1-yl)-2-oxoethyl(2-(2,6-dioxopiperidin-3-yl)-1-oxoisoindolin-4-yl)carbamate]",3000
8,"CCNC(=O)c1nnc(-c2cc(C(C)C)c(O)cc2O)n1-c1ccc(C(=O)N2CCC(CCOC(=O)Nc3cccc4c3CN(C3CCC(=O)NC3=O)C4=O)CC2)cc1 (stereo not drawn) [SDC-TRAP-0140, 2-(1-(4-(3-(2,4-dihydroxy-5-isopropylphenyl)-5-(ethylcarbamoyl)-4H-1,2,4-triazol-4-yl)benzoyl)piperidin-4-yl)ethyl(2-(2,6-dioxopiperidin-3-yl)-1-oxoisoindolin-4-yl)carbamate]",> 5000
9,"CC(C)c1cc(-c2nnc(O)n2-c2ccc(CN3CCN(C(=O)O[C@H]4CC[C@@]5(C)C(=CC[C@@H]6[C@@H]5CC[C@]5(C)C(c7cccnc7)=CC[C@@H]65)C4)CC3)cc2)c(O)cc1O [SDC-TRAP-0150, (3S,8R,9S,10R,13S,14S)-10,13-dimethyl-17-(pyridin-3-yl)-2,3,4,7,8,9,10,11,12,13,14,15-dodecahydro-1H-cyclopenta[a]phenanthren-3-yl 4-(4-(3-(2,4-dihydroxy-5-isopropylphenyl)-5-hydroxy-4H-1,2,4-triazol-4-yl)benzyl) piperazine-1-carboxylate]",1410
10,"CC(C)c1cc(-c2nnc(O)n2-c2ccc3c(ccn3CCNC(=O)Cn3cc(F)c(=O)[nH]c3=O)c2)c(O)cc1O [SDC-TRAP-0013, N-(2-(5-(3-(2,4-dihydroxy-5-isopropylphenyl)-5-hydroxy-4H-1,2,4-triazol-4-yl)-1H-indol-1-yl)ethyl)-2-(5-fluoro-2,4-dioxo-3,4-dihydropyrimidin-1(2H)-yl) acetamide]",> 5000
11,"CC(C)c1cc(-c2nnc(O)n2-c2ccc(CN3CCN(C(=O)c4ccc(COC(=O)Nc5cccc6c5CN(C5CCC(=O)NC5=O)C6=O)cc4)CC3)c(F)c2)c(O)cc1O (stereo not drawn) [SDC-TRAP-0157, 4-(4-(4-(3-(2,4-dihydroxy-5-isopropylphenyl)-5-hydroxy-4H-1,2,4-triazol-4-yl)-2-fluorobenzyl)piperazine-1-carbonyl)benzyl (2-(2,6-dioxopiperidin-3-yl)-1-oxoisoindolin-4-yl)carbamate]",696
12,"CC(C)c1cc(-c2nnc(O)n2-c2ccc3c(ccn3CCC3CCN(C(=O)Cn4cc(F)c(=O)[nH]c4=O)CC3)c2)c(O)cc1O [SDC-TRAP-0137, 1-(2-(4-(2-(5-(3-(2,4-dihydroxy-5-isopropylphenyl)-5-hydroxy-4H-1,2,4-triazol-4-yl)-1H-indol-1-yl)ethyl)piperidin-1-yl)-2-oxoethyl)-5-fluoropyrimidine-2,4(1H,3H)-dione]",> 5000
13,"CCNC(=O)c1nnc(-c2cc(C(C)C)c(O)cc2O)n1-c1ccc(C(=O)N[C@@H](CC(C)C)C(=O)Nc2cccc3c2CN(C2CCC(=O)NC2=O)C3=O)cc1 (stereo partly drawn) [SDC-TRAP-0189, 5-(2,4-dihydroxy-5-isopropylphenyl)-4-(4-(((2S)-1-((2-(2,6-dioxopiperidin-3-yl)-1-oxoisoindolin-4-yl)amino)-4-methyl-1-oxopentan-2-yl)carbamoyl)phenyl)-N-ethyl-4H-1,2,4-triazole-3-carboxamide]",1090
14,"COc1cc(O)c(-c2nnc(C(=O)NC(C)C)n2-c2ccc(CN3CCC(C(=O)Nc4cccc5c4CN(C4CCC(=O)NC4=O)C5=O)CC3)cc2)cc1C(C)C (stereo not drawn) [SDC-TRAP-0115, N-(2-(2,6-dioxopiperidin-3-yl)-1-oxoisoindolin-4-yl)-1-(4-(3-(2-hydroxy-5-isopropyl-4-methoxyphenyl)-5-(isopropylcarbamoyl)-4H-1,2,4-triazol-4-yl)benzyl)piperidine-4-carboxamide]",1890
15,"CCNC(=O)c1nnc(-c2cc(C(C)C)c(O)cc2O)n1-c1ccc(CN2CCC(C(=O)Nc3cccc4c3CN(C3CCC(=O)NC3=O)C4=O)CC2)cc1 (stereo not drawn) [SDC-TRAP-0149, 1-(4-(3-(2,4-dihydroxy-5-isopropylphenyl)-5-(ethylcarbamoyl)-4H-1,2,4-triazol-4-yl)benzyl)-N-(2-(2,6-dioxopiperidin-3-yl)-1-oxoisoindolin-4-yl)piperidine-4-carboxamide]",1690
